Source: ChEMBL document CHEMBL5038675, “Selective A3 Adenosine Receptor Antagonist Radioligand for Human and Rodent Species” (ACS Med Chem Lett, 2022)
Values belong to the compound of their own block, whether it stands above or below them.

Assays:
[1] = molecular target: D(3) dopamine receptor (Homo sapiens, UniProt P35462); assay: Binding affinity to human D3 receptor by radioligand binding assay
[2] = molecular target: Translocator protein (Homo sapiens, UniProt P30536); assay: Binding affinity to human TSPO receptor by radioligand binding assay
[3] = molecular target: T1, Adenosine receptor A3 (Mus musculus, UniProt Q61618); assay type: cell-based, HEK293
T1 sequence (Q61618 whole entry): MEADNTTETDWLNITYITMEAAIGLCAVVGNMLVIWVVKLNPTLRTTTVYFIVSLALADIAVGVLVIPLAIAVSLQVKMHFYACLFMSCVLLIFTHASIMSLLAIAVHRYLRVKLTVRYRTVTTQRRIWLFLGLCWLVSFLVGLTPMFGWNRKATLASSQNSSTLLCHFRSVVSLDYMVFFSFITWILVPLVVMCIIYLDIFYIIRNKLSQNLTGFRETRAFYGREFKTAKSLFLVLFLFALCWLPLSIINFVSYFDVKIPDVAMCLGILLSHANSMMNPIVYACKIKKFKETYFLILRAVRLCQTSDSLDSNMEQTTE

[4] = molecular target: D(4) dopamine receptor (Homo sapiens, UniProt P21917); assay: Binding affinity to human D4 receptor by radioligand binding assay
[5] = molecular target: Adenosine receptor A2a (Mus musculus) (UniProt Q60613); assay: Displacement of [3H] ZM241385 from mouse adenosine A2A receptor expressed in HEK293 cells at 10 uM incubated for 60 mins by radioligand binding assay; assay type: cell-based
[6] = molecular target: T2, Adenosine receptor A1 (Mus musculus, UniProt Q60612); assay: Displacement of [3H] DPCPX from mouse adenosine A1 receptor expressed in HEK293 cells incubated for 60 mins by radioligand binding assay; assay type: cell-based
T2 sequence (Q60612 whole entry): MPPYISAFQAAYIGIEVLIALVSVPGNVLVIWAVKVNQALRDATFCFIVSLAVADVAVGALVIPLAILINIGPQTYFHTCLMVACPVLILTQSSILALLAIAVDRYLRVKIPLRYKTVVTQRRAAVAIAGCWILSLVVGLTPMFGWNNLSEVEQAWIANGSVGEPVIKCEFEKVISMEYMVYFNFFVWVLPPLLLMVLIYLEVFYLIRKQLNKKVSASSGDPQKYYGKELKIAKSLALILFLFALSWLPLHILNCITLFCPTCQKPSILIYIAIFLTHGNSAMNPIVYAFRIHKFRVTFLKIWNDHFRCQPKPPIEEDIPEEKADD

[7] = molecular target: Sigma intracellular receptor 2 (Homo sapiens, UniProt Q5BJF2); assay: Binding affinity to human sigma2 receptor by radioligand binding assay
[8] = molecular target: T3, Adenosine receptor A3 (Homo sapiens, UniProt P0DMS8); assay type: cell-based, HEK293
T3 sequence (P0DMS8 whole entry): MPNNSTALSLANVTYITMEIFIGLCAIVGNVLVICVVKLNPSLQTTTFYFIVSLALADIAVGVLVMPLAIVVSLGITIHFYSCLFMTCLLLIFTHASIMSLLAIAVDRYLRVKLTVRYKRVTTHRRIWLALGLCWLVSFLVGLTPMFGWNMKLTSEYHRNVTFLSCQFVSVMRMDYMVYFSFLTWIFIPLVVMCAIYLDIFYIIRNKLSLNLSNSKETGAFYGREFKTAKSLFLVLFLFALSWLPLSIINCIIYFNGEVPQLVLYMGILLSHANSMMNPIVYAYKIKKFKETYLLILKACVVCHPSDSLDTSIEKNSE

[9] = molecular target: T4, Adenosine receptor A1 (Homo sapiens, UniProt P30542); assay: Displacement of [3H] DPCPX from human adenosine A1 receptor expressed in HEK293 cells incubated for 60 mins by radioligand binding assay; assay type: cell-based
T4 sequence (P30542 whole entry): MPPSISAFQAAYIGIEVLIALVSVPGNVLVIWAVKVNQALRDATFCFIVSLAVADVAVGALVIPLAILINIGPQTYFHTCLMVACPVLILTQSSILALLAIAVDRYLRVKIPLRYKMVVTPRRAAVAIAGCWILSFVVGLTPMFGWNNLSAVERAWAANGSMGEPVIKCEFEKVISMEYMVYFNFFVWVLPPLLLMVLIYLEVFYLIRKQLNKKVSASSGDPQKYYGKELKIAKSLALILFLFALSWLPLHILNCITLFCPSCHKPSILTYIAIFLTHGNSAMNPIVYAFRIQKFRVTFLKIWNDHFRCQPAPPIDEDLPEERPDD

[10] = molecular target: T5, Adenosine receptor A2a (Homo sapiens, UniProt P29274); assay: Displacement of [3H] ZM241385 from human adenosine A2A receptor expressed in HEK293 cells at 10 uM incubated for 60 mins by radioligand binding assay; assay type: cell-based
[11] = molecular target: T5, Adenosine receptor A2a; assay: Displacement of [3H] ZM241385 from human adenosine A2A receptor expressed in HEK293 cells incubated for 60 mins by radioligand binding assay; assay type: cell-based
[12] = Half life in Sprague-Dawley rat plasma at 1 mg/kg, iv measured after 8 hrs by LC-MS/MS analysis; assay type: ADME, organism-based
[13] = molecular target: Adenosine receptor A2b (Homo sapiens, UniProt P29275); assay: Displacement of [3H] DPCPX from human adenosine A2B receptor expressed in HEK293 cells incubated for 60 mins by radioligand binding assay; assay type: cell-based
[14] = molecular target: 5-hydroxytryptamine receptor 2A (Homo sapiens, UniProt P28223); assay: Binding affinity to human 5-HT2A receptor by radioligand binding assay
[15] = Lipophilicity, logP of compound; assay type: physicochemical; details: octanol/water
[16] = Volume of distribution in Sprague-Dawley rat plasma at 1 mg/kg, iv measured after 8 hrs by LC-MS/MS analysis; assay type: ADME, organism-based
[17] = Clearance in Sprague-Dawley rat plasma at 1 mg/kg, iv measured after 8 hrs by LC-MS/MS analysis; assay type: ADME, organism-based
[18] = Fraction unbound in Sprague-Dawley rat plasma assessed as unbound fraction at 1 mg/kg, iv measured after 8 hrs by LC-MS/MS analysis; assay type: ADME, organism-based
[19] = C0 in Sprague-Dawley rat brain at 1 mg/kg, iv measured after 8 hrs by LC-MS/MS analysis; assay type: ADME, organism-based
[20] = molecular target: 5-hydroxytryptamine receptor 2C (Homo sapiens, UniProt P28335); assay: Binding affinity to human 5-HT2C receptor by radioligand binding assay
[21] = molecular target: Adenosine receptor A2a (Mus musculus, UniProt Q60613); assay: Displacement of [3H] ZM241385 from mouse adenosine A2A receptor expressed in HEK293 cells incubated for 60 mins by radioligand binding assay; assay type: cell-based
[22] = molecular target: Adenosine receptor A2b (Rattus norvegicus, UniProt P29276); assay: Displacement of [3H] DPCPX from rat adenosine A2B receptor expressed in HEK293 cells incubated for 60 mins by radioligand binding assay; assay type: cell-based
[23] = C0 in Sprague-Dawley rat plasma at 1 mg/kg, iv measured after 8 hrs by LC-MS/MS analysis; assay type: ADME, organism-based
[24] = Drug concentration in Sprague-Dawley rat plasma assessed as average concentration at 1 mg/kg, iv measured after 8 hrs by LC-MS/MS analysis; assay type: ADME, organism-based; details: in vivo
[25] = molecular target: Muscarinic acetylcholine receptor M5 (Homo sapiens, UniProt P08912); assay: Binding affinity to human M5 receptor by radioligand binding assay
[26] = Drug concentration in Sprague-Dawley rat brain concentration assessed as average concentration at 1 mg/kg, iv measured after 8 hrs by LC-MS/MS analysis; assay type: ADME, organism-based; details: in vivo
[27] = Half life in Sprague-Dawley rat brain at 1 mg/kg, iv measured after 8 hrs by LC-MS/MS analysis; assay type: ADME, organism-based
[28] = Fraction unbound in Sprague-Dawley rat brain assessed as unbound fraction at 1 mg/kg, iv measured after 8 hrs by LC-MS/MS analysis; assay type: ADME, organism-based
[29] = molecular target: Adenosine receptor A2a (Rattus norvegicus, UniProt P30543); assay: Displacement of [3H] ZM241385 from rat adenosine A2A receptor expressed in HEK293 cells incubated for 60 mins by radioligand binding assay; assay type: cell-based
[30] = molecular target: T6, Adenosine receptor A3 (Rattus norvegicus, UniProt P28647); assay type: cell-based, HEK293
T6 sequence (P28647 whole entry): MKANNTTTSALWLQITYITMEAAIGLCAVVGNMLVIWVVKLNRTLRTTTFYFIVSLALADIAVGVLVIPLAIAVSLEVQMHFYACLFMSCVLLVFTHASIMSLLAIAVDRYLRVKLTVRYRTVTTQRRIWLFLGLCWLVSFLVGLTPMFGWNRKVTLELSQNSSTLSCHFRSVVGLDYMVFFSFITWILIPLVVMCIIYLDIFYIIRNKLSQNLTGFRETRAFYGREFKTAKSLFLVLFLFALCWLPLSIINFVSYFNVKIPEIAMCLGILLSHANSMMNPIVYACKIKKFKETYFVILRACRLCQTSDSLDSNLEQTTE

[31] = Volume of distribution in Sprague-Dawley rat brain at 1 mg/kg, iv measured after 8 hrs by LC-MS/MS analysis; assay type: ADME, organism-based
[32] = molecular target: Adenosine receptor A2b (Mus musculus, UniProt Q60614); assay: Displacement of [3H] DPCPX from mouse adenosine A2B receptor expressed in HEK293 cells incubated for 60 mins by radioligand binding assay; assay type: cell-based
[33] = molecular target: Adenosine receptor A1 (Rattus norvegicus, UniProt P25099); assay: Displacement of [3H] DPCPX from rat adenosine A1 receptor expressed in HEK293 cells incubated for 60 mins by radioligand binding assay; assay type: cell-based
[34] = molecular target: T7, Adenosine receptor A1 (Homo sapiens) (UniProt P30542); assay: Displacement of [3H] DPCPX from human adenosine A1 receptor expressed in HEK293 cells at 10 uM incubated for 60 mins by radioligand binding assay; assay type: cell-based
T7 sequence (whole entry): T4 sequence (P30542 whole entry)

T5 sequence (P29274 whole entry): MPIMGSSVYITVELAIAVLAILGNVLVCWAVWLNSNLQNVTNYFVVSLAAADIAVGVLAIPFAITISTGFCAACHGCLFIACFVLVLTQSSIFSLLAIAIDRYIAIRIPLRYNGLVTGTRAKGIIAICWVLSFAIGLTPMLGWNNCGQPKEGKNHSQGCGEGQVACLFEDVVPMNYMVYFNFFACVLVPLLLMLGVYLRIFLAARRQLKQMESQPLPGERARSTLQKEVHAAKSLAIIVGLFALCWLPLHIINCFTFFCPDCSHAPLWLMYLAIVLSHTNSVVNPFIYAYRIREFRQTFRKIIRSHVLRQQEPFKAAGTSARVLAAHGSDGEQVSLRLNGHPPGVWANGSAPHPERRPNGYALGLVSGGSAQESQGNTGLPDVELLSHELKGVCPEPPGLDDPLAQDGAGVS
Chain of Adenosine receptor A2a (Mus musculus) (Q60613 whole entry): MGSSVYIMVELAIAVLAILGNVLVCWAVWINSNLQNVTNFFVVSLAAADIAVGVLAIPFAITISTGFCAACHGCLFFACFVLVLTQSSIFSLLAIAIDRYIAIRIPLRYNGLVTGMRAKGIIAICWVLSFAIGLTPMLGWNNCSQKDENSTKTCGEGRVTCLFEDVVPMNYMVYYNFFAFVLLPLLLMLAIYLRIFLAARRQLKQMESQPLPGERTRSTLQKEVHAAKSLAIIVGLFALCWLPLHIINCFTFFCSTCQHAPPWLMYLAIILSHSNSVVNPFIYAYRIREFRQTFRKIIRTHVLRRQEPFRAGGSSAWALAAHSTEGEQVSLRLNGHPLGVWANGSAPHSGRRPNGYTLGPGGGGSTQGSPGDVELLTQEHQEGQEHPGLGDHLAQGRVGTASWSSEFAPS
Chain of 5-hydroxytryptamine receptor 2C (P28335 whole entry): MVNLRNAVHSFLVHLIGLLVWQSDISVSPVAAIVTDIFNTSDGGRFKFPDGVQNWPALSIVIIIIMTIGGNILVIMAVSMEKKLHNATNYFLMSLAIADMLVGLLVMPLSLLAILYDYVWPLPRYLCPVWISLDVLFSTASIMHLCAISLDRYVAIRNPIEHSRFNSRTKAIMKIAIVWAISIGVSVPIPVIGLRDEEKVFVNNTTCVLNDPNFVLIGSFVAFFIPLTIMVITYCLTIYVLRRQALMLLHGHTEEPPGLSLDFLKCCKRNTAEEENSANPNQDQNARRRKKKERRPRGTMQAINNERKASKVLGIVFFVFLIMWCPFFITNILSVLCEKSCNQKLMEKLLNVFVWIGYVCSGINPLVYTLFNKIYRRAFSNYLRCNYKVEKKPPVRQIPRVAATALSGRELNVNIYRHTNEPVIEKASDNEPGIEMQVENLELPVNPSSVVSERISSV
Chain of D(3) dopamine receptor (P35462 whole entry): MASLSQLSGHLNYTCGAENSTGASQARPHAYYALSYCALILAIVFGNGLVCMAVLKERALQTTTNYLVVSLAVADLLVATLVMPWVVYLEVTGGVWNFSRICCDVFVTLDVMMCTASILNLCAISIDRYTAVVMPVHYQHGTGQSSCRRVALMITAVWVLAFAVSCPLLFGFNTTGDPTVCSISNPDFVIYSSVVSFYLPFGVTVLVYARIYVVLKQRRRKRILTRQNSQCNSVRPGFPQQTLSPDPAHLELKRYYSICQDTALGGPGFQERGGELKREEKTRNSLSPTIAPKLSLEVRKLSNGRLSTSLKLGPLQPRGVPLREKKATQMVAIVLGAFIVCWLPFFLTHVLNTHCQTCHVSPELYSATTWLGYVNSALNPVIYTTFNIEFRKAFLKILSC
Chain of 5-hydroxytryptamine receptor 2A (P28223 whole entry): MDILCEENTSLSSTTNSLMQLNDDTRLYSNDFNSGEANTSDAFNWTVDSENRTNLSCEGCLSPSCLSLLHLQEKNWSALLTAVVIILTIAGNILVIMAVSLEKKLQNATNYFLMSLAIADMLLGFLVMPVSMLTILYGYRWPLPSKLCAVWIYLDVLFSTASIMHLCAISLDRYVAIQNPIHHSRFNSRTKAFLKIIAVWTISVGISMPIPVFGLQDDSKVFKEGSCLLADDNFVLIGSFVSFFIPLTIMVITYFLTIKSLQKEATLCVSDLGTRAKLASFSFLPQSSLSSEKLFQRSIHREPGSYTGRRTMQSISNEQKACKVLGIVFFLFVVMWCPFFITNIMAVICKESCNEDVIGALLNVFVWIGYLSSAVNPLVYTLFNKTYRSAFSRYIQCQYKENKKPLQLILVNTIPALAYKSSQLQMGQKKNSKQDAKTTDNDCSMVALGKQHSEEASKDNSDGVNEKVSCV
Chain of Adenosine receptor A2a (Rattus norvegicus, UniProt P30543) (P30543 whole entry): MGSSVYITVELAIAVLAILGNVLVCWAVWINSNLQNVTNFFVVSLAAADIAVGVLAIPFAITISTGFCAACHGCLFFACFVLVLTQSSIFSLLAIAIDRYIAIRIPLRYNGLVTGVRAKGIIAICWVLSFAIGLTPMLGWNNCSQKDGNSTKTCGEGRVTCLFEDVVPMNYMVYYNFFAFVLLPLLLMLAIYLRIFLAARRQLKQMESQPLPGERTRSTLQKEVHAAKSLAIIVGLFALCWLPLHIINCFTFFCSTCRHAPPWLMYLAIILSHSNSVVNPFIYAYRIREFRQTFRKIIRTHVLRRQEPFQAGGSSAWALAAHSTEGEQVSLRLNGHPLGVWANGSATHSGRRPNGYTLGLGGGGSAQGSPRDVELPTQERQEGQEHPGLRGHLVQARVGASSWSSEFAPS
Chain of Adenosine receptor A1 (Rattus norvegicus, UniProt P25099) (P25099 whole entry): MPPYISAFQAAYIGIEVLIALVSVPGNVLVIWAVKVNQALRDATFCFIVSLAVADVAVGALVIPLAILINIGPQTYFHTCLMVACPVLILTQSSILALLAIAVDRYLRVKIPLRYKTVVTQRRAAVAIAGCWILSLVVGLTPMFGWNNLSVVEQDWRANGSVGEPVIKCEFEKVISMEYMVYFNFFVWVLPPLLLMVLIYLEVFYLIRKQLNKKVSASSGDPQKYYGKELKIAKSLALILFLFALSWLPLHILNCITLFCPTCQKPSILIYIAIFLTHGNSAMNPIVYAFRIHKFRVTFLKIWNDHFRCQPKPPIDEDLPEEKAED
Chain of Adenosine receptor A2b (Mus musculus, UniProt Q60614) (Q60614 whole entry): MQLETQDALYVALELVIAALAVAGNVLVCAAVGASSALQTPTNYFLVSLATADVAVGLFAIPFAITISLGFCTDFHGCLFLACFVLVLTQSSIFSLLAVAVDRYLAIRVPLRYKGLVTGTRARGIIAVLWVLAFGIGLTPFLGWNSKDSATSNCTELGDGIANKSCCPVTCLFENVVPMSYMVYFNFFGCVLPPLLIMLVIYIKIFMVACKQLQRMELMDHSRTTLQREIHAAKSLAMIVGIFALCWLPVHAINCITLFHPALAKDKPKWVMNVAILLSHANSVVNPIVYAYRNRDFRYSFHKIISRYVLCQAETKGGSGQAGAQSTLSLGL
Chain of Adenosine receptor A2a (Mus musculus, UniProt Q60613) (Q60613 whole entry): as the sequence (Q60613 whole entry) above
Chain of Sigma intracellular receptor 2 (Q5BJF2 whole entry): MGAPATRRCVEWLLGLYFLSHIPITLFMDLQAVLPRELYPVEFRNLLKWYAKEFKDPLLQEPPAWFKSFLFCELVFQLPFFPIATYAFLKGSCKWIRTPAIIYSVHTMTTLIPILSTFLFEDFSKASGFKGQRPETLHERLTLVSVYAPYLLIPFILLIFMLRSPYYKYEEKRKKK
Chain of Adenosine receptor A2b (Homo sapiens, UniProt P29275) (P29275 whole entry): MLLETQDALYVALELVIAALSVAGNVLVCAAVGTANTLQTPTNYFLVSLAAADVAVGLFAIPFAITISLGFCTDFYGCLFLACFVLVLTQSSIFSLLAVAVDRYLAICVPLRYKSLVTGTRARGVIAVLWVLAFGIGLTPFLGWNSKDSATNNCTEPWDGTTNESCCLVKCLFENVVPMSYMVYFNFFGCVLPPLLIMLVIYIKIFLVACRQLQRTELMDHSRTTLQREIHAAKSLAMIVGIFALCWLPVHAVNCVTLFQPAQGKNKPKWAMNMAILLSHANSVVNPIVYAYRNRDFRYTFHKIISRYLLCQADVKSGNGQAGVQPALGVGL
Chain of D(4) dopamine receptor (P21917 whole entry): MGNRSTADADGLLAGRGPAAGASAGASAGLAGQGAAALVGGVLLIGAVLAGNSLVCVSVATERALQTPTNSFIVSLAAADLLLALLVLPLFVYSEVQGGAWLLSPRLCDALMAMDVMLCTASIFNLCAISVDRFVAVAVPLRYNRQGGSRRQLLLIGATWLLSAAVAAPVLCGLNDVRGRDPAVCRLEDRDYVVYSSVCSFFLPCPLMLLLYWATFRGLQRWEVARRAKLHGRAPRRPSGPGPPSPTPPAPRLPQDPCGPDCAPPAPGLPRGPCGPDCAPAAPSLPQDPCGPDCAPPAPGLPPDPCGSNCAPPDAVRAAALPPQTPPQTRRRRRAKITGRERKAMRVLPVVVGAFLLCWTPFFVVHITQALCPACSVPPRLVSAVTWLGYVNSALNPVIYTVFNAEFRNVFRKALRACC
Chain of Muscarinic acetylcholine receptor M5 (P08912 whole entry): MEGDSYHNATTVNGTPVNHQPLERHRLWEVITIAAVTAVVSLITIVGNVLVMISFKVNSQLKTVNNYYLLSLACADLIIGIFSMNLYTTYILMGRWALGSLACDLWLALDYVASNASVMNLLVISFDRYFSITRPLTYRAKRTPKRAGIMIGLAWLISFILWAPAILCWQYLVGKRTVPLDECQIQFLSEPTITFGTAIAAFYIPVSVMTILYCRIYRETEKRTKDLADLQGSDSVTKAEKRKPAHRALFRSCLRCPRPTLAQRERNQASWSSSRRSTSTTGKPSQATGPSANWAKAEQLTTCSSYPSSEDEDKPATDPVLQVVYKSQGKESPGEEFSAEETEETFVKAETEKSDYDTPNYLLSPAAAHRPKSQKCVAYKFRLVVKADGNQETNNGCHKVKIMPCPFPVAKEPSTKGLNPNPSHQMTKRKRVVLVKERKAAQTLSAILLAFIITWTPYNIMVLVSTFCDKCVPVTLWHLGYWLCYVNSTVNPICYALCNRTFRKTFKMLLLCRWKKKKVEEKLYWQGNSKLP
Chain of Translocator protein (P30536 whole entry): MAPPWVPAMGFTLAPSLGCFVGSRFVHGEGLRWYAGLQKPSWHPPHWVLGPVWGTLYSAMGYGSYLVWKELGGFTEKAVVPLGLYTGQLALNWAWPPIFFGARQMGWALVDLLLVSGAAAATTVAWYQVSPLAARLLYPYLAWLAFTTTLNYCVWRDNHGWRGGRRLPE

- Ki [3]: 22.3 nM
- inhibition [10]: -7.3%
- inhibition [5]: 29%
- Ki [6]: 252 nM
- Ki [8]: 6.34 nM
- Ki [9]: 1450 nM
SMILES: Cc1cc(Br)cc(-c2nc(NC(=O)c3cccnc3)sc2-c2ccncc2)c1

- half-life [12]: 48 min
- Ki [13]: 230 nM
- Ki [14]: 960 nM
- Ki [11]: 121 nM
- logP [15]: 4.68
- Vd [16]: 1.8 L/kg
- clearance [17]: 40 mL/min/kg
- Ki [3]: 9.61 nM
- fraction unbound at 8 h [18]: 0.03
- C0 at 8 h [19]: 760 ng/mL
- Ki [20]: 790 nM
- Ki [6]: 411 nM
- Ki [21]: 830 nM
- Ki [22]: 163 nM
- C0 at 8 h [23]: 628 ng/mL
- Cave [24]: 52 ng/mL
- Ki [25]: 3700 nM
- Cave [26]: 95 ng/mL
- half-life [27]: 42 min
- fraction unbound at 8 h [28]: 0.03
- Ki [29]: 1150 nM
- Ki [9]: 162 nM
- Ki [30]: 8.53 nM
- Vd [31]: 1.9 L/kg
- Ki [32]: 189 nM
- Ki [33]: 333 nM
SMILES: Cc1cc(C)cc(-c2nc(NC(=O)c3cccnc3)sc2-c2ccncc2)c1

Continued, compound first:

SMILES: Cc1cc(I)cc(-c2nc(NC(=O)c3cccnc3)sc2-c2ccncc2)c1
- Ki [1]: 340 nM
- Ki [2]: 1330 nM
- Ki [3]: 12.4 nM
- Ki [4]: 1240 nM
- inhibition [5]: 7.4%
- Ki [6]: 2640 nM
- Ki [7]: 3690 nM
- Ki [8]: 6.12 nM
- Ki [9]: 8770 nM

SMILES: Cc1cc(F)cc(-c2nc(NC(=O)c3cccnc3)sc2-c2ccncc2)c1
- Ki [11]: 3550 nM
- Ki [8]: 69.2 nM
- Ki [9]: 78.7 nM

SMILES: COC(=O)/C=C/c1cc(C)cc(-c2nc(NC(=O)c3cccnc3)sc2-c2ccncc2)c1
- Ki [3]: 120 nM
- inhibition [10]: 15%
- Ki [8]: 18.9 nM
- Ki [9]: 1570 nM

SMILES: Cc1cc(C#Cc2ccc(Cl)s2)cc(-c2nc(NC(=O)c3cccnc3)sc2-c2ccncc2)c1
- inhibition [10]: -0.5%
- inhibition [34]: 21%
- Ki [8]: 80.7 nM
